Our source for the Km, Vmax and IC50 values is article PMC3658134 (Biochemistry, 2011).

Holding throughout (format): biochemical
The target of test [1] is T1, Sec597Cys SmTGR (Schistosoma mansoni, UniProt Q962Y6). As to the kind of experiment: Substrate specificity, NADPH consumption, Sec597Cys. The settings on record: 100 μM NADPH.
Test [2] deals with T2, wild-type TGR (SmTGR) (Schistosoma mansoni, UniProt Q962Y6).
T2 sequence (Q962Y6 1-598): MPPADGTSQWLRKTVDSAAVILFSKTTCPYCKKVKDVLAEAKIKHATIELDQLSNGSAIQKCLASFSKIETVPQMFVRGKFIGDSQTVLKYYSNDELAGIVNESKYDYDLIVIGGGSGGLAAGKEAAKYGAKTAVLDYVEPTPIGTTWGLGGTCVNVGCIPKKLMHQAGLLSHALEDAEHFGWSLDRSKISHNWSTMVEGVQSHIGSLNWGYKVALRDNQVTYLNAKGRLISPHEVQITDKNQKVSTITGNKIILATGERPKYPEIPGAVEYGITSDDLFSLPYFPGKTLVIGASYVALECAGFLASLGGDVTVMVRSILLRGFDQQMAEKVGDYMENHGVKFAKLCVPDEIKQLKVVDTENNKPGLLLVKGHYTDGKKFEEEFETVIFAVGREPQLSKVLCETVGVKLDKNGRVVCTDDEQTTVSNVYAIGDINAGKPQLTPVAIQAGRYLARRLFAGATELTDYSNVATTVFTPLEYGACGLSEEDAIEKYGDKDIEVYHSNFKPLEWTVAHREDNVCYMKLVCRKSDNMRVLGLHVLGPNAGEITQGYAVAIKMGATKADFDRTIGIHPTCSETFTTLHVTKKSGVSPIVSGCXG
As to the kind of experiment: Substrate specificity, NADPH consumption, wild-type TGR.

Test [3] deals with T3, WT SmTGR (Schistosoma mansoni, UniProt Q962Y6). Description: Inhibition of DTNB activity of WT SmTGR.
In test [4] the target is T1, Sec597Cys SmTGR. As to the kind of experiment: Inhibition of DTNB activity of Sec597Cys.
For test [5], the target named is T3, WT SmTGR. As to the kind of experiment: Inhibition of GR activity of WT SmTGR.
Test [6] deals with T1, Sec597Cys SmTGR. As to the kind of experiment: Inhibition of GR activity of Sec597Cys.
Test [7] has as its target T3, WT SmTGR. Description: Inhibition of TrxR activity of WT SmTGR.
The target of test [8] is T1, Sec597Cys SmTGR. As to the kind of experiment: Inhibition of TrxR activity of Sec597Cys.
Setting [9] is: Sec597Cys 100 or 150 nM, ND = undetectable activity.
The mark [10] stands for this setting: WT enzyme 20 or 100 nM, 100 μM NADPH, ND = undetectable activity.

Like-named read-outs stand apart in the source and are kept apart here.

In the case of `O=C1NC(=O)C(=O)C(=O)N1` [Alloxan, alloxan], the Km (usually the concentration of substrate that gives half-maximal velocity) in test [1] (setting [9]) was found to be 0.88 ± 0.07 mM.

Turning to `OO` [H2O2, hydrogen peroxide], the figures for the Michaelis constant (Km) in test [2] and in test [1] (setting [9]) were 17.3 ± 7.6 mM and 52.4 ± 9.8 mM, respectively. Further, the Vmax in test [2] (pH 7.4) is 4.6 ± 0.7 s⁻¹.

Regarding `N#Cc1c(-c2ccccc2)no[n+]1[O-]` [Fx, 4-phenyl-1,2,5-oxadiazole-3-carbonitrile-2-oxide], the IC50 (commonly the concentration needed to halve the response being measured) turned out to be 3 µM in test [3]; 6 µM in test [4]; 3.2 µM in test [5]; 2.5 µM in test [6]; 5.4 µM in test [7]; 2.1 µM in test [8].

For `CC(C)(C)OO` [t-Butyl-OOH, tert-butyl hydroperoxide], the Km in test [2] (setting [10]) was found to be 75 ± 10 mM; in test [1] (setting [9]) it was 53 ± 5 mM.

Take `O=[Se](O)O` [NaSeO3, sodium selenite]: the Michaelis-Menten constant (Km) was found to be 0.0087 ± 0.0025 mM in test [2] (WT enzyme 100 nM, 100 μM NADPH) and 0.0173 ± 0.0044 mM in test [1] (Sec597Cys 100 nM).

On to `O=C(O)CCCC[C@@H]1CCSS1` (racemic) [Lipoic acid, lipoic acid], for which the figures for the Michaelis-Menten constant (Km) in test [2] (setting [10]) and in test [1] (setting [9]) were 2.9 ± 0.7 mM and 9.3 ± 2.9 mM, respectively.
